Active and inactive are the calls of the source.
Assays:
[1] = molecular target: T1, Long-chain-fatty-acid--AMP ligase FadD28 (Mycobacterium tuberculosis, UniProt P9WQ59); test: Fluorescence polarization aasay to screen for inhibitors that compete for the binding of FadD28 to a bisubstrate Measured in Biochemical System Using Plate Reader - 2147-01_Inhibitor_Dose_CherryPick_Activity.; assay type: functional, Mycobacterium tuberculosis H37Rv
T1 sequence (P9WQ59 whole entry): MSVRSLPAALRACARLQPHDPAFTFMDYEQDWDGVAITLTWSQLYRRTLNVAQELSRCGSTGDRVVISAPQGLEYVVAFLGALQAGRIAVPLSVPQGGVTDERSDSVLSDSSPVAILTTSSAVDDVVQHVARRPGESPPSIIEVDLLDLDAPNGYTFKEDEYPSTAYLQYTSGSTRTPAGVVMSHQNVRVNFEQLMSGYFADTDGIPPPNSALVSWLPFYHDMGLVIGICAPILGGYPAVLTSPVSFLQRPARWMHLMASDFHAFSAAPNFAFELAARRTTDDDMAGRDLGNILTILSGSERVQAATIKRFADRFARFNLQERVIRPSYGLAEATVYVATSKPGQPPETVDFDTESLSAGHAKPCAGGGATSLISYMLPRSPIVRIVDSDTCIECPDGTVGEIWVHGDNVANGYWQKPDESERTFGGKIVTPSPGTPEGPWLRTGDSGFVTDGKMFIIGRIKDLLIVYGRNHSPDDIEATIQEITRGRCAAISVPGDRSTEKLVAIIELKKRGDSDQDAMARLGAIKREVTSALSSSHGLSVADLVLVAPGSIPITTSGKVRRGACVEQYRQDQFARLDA

[2] = inhibitors of intracellular T. cruzi replication, confirmation, NIH3T3 host cells, beta-gal luminescence (AID 2044); assay type: functional, cell-based;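 further: intracellular parasites grown in NIH/3T3 mouse fibroblasts as host cells; luminescent beta-galactosidase reporter signal from transgenic T. cruzi replicating inside host cells; inhibitors lower the luminescence signal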
[3] = growth suppression of PTEN-null colon cells, dose response, cell-based, HCT116 PTEN knockout (AID 1047); assay type: functional;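 further: HCT116 colon tumor cells with PTEN knocked out; cells exposed to compound for 60 hours before readout; potency for loss of cell viability measured by luminescence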
[4] = cytotoxicity toward NIH3T3 fibroblasts, dose response, counter-screen, cell-based, ATP luminescence, mouse fibroblasts (AID 2010); assay type: functional;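 further: cells exposed to compound for about 90 hours before reading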
[5] = growth suppression of beta-catenin-knockout colon cells, dose response, cell-based, HCT116, human colon tumor (AID 1045); assay type: functional;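 further: HCT116 colon tumor cells with beta catenin knocked out; cells exposed to compound for 60 hours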
[6] = molecular target: Cytochrome P450 2C19 (Homo sapiens, UniProt P33261); test: Cytochrome panel assay with activity outcomes. Panel member name: p450-cyp2c19 Compounds with AC50 equal or less than 10 uM are considered active; assay type: functional; conditions: read-out: AC50
[7] = test system: INS1; test: beta cell apoptosis inhibitors, cytokine rescue, dose response, luminescence, retest (AID 449756); assay type: functional, cell-based; conditions: Rattus norvegicus;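 further: cell death triggered by IL-1 beta plus TNF-alpha plus IFN-gamma mixture; protective hits raise ATP signal compared with cytokine alone wells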
[8] = HepG2 cell cytotoxicity, dose response, cytotoxicity control, ATP luminescence, cherry-pick, activator set 2 (AID 1053143); assay type: functional, cell-based
[9] = LGR2 antagonists, dose response, cell-based, HEK293, CRE-luciferase reporter, cherry pick, set 2 (AID 743343); assay type: functional;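 further: transfected cells were stimulated with diluted bursicon conditioned medium after compound addition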
[10] = MC4R antagonists, dose response, counter-screen for LGR2 antagonist project, cell-based, plate reader, cherry pick (AID 743444); assay type: functional;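 further: transfected HEK 293 cells stimulated with alpha-MSH peptide; potency of inhibitors of the alpha-MSH evoked signal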
[11] = molecular target: T2, Small ubiquitin-related modifier 1 (Homo sapiens, UniProt P63165); test: inhibitors of SUMO1 peptide binding, dose response, biochemical, fluorescence polarization, uHTS hits (AID 624382); assay type: functional; conditions: read-out: IC50_Mean
[12] = molecular target: T2, Small ubiquitin-related modifier 1; test: inhibitors of SUMO1 partner interactions, dose response, biochemical, FRET (AID 624383); assay type: functional; conditions: read-out: IC50_Mean
[13] = molecular target: T3, Methionyl-tRNA synthetase, putative (Trypanosoma brucei brucei, UniProt Q38C91); assay type: functional, Trypanosoma brucei brucei strain 927/4 GUTat10.1;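 further: Read-out by fluorescence polarization, run as a confirmatory high-throughput counterscreen; potency of MetRS inhibitors measured by reduced AMP formation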
T3 sequence (Q38C91 whole entry): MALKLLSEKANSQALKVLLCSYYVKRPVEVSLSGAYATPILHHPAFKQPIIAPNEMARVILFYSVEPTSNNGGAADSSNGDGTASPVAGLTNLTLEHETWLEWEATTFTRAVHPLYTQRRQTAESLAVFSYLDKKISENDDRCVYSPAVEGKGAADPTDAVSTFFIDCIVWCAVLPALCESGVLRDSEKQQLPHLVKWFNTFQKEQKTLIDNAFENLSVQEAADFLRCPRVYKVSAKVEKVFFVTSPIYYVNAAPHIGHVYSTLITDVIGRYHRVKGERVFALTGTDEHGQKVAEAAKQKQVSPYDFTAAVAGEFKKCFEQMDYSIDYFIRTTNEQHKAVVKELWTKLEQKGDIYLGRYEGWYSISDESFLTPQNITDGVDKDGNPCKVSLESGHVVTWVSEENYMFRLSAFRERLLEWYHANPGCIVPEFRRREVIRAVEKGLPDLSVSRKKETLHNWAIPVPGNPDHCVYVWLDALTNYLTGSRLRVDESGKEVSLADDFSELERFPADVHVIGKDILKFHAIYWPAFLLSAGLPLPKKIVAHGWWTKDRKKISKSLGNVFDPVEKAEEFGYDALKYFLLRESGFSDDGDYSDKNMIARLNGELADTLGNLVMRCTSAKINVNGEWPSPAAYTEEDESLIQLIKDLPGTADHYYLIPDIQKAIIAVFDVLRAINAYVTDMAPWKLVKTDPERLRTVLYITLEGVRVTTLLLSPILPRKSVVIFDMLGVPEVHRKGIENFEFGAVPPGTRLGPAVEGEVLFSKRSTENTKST

[14] = Counterscreen for inhibitors of Trypanosoma brucei methionyl tRNA synthetase (MetRS): Luminescence-based cell-based high throughput dose response assay to identify compounds that are cytotoxic to Jurkat human T lymphocyte cells.; assay type: functional
[15] = molecular target: T4, Galanin receptor type 3 (Homo sapiens, UniProt O60755); test: Fluorescence-based cell-based primary high throughput dose response assay to identify antagonists of the Galanin Receptor 3 (GalR3).; assay type: functional
T4 sequence (O60755 whole entry): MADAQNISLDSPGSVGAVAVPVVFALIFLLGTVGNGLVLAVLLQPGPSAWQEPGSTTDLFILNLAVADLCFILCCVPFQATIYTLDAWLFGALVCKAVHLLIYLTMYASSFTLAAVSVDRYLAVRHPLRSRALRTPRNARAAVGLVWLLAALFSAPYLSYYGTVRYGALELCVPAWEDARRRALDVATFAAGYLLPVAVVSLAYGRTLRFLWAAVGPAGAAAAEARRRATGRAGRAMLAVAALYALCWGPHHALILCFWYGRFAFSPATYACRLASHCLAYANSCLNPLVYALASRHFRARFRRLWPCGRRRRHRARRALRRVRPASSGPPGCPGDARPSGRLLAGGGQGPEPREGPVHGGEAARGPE

[16] = cells; assay type: functional, cell-based; conditions: HEK-CNG
[17] = molecular target: T5, Probable nicotinate-nucleotide adenylyltransferase (Staphylococcus aureus (strain N315), UniProt P65502); assay type: functional, Staphylococcus aureus subsp. aureus N315;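 on IC50 Mean: confirmatory dose-response retesting of NadD inhibitor hits first found in an ultra-high-throughput screen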
[18] = molecular target: T5, Probable nicotinate-nucleotide adenylyltransferase; assay type: functional, Staphylococcus aureus subsp. aureus N315; conditions: read-out: IC50_Mean
[19] = T. cruzi growth inhibition in host cells, dose response, cell-based, plate reader, dry powder, set 2 (AID 652275); assay type: functional
[20] = THP-1 cell cytotoxicity, dose response, cytotoxicity control for Vif-APOBEC3G degradation inhibitor project, THP-1 cells (AID 1117359); assay type: functional; conditions: Human immunodeficiency virus 1, THP-1
[21] = molecular target: Paired box protein Pax-8 (Homo sapiens, UniProt Q06710); test: inhibitors of PAX8-driven TPO luciferase reporter, dose response, RMG-I cells, cherry-pick (AID 687027); assay type: functional, cell-based;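 further: luciferase reporter driven by Pax8 target thyroperoxidase promoter measured by SteadyGlo luminescence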
[22] = NIH:OVCAR-3 ovarian cancer cell cytotoxicity, dose response, PAX8 inhibitor project, plate reader, dry powder samples (AID 743044); assay type: functional, cell-based
[23] = cytotoxicity in OVCAR8 ovarian cancer cells, dose response, PAX8 project, cell-based, plate reader, dry powder samples (AID 743197); assay type: functional; conditions: OVCAR-8
[24] = A549 cell cytotoxicity, dose response, cytotoxicity control, plate reader, cherry-pick, antagonist series (AID 743412); assay type: functional, cell-based
[25] = HepG2 cell cytotoxicity, dose response, cytotoxicity control, plate reader, cherry-pick, antagonist series (AID 743416); assay type: functional, cell-based
[26] = P. falciparum Dd2 growth inhibitors, dose response, SYBR Green, cherry-picked samples (AID 1159567); assay type: functional, cell-based
[27] = HepG2 cell cytotoxicity, dose response, cytotoxicity control, cherry-picked samples (AID 1159577); assay type: functional, cell-based
[28] = P. falciparum 3D7-ScDHODH growth inhibitors, dose response, SYBR Green, dry powder samples (AID 1159570); assay type: functional, cell-based;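 further: parasite growth measured after 72 hours of compound exposure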
[29] = HepG2 cell cytotoxicity, dose response, cytotoxicity control, plate reader, dry powder samples (AID 1159569); assay type: functional, cell-based;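 further: inhibitor potency with signal falling toward the positive control level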
[30] = P. falciparum Dd2 growth inhibitors, dose response, SYBR Green, dry powder samples (AID 1159566); assay type: functional, cell-based;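 further: potency for growth inhibition with lower SYBR green DNA signal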
[31] = P. falciparum ATP4 D1247Y mutant growth inhibitors, dose response, NITD609-resistant line, SYBR Green, dry powder (AID 1159571); assay type: functional, cell-based;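 further: parasites synchronized at ring stage by sorbitol before testing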

T2 sequence (P63165 whole entry): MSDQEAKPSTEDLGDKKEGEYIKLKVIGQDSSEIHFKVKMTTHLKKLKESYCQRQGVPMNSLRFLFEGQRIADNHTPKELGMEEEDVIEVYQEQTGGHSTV
T5 sequence (P65502 whole entry): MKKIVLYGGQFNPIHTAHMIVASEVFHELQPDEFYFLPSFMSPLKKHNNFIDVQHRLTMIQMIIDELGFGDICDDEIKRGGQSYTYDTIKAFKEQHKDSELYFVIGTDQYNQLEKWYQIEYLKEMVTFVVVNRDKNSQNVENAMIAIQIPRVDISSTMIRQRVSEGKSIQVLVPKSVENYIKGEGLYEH
Sequence of Paired box protein Pax-8 (Q06710 whole entry): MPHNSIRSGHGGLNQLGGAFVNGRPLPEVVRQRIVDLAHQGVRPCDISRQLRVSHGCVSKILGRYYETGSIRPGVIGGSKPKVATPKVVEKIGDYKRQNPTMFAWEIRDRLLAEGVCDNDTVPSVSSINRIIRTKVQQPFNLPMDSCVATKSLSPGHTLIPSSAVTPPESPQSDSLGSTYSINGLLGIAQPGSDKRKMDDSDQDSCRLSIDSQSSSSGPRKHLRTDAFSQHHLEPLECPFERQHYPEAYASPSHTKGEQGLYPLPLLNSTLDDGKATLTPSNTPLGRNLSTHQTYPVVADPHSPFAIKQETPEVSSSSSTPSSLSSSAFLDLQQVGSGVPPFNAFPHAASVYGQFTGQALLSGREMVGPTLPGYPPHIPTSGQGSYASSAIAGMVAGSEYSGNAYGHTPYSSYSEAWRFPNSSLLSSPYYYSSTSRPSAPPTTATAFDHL
Sequence of Cytochrome P450 2C19 (P33261 whole entry): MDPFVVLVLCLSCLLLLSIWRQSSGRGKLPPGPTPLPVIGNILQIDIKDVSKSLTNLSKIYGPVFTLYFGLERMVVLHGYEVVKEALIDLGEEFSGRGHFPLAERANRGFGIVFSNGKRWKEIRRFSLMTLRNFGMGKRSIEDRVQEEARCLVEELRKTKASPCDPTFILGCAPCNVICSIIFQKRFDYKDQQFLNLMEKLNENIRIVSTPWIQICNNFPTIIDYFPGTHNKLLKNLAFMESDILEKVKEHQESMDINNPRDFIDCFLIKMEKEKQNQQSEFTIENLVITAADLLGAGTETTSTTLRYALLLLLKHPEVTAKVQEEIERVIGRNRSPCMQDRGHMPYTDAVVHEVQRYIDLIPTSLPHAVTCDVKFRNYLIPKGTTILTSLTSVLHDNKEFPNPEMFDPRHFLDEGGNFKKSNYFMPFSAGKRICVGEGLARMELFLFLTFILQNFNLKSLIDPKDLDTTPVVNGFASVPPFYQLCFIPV

In the case of CCCCCCSC1=C(C#N)C(=O)NC2(CCCCC2)S1, the AC50 [1] is reported as > 100 µM (inactive).

In the case of O=C(/C(=C/c1ccc(Cl)cc1)c1nc2ccccc2[nH]1)c1ccccc1, the EC50 [2] is reported as 0.824 µM (active), the EC50 [3] is reported as 3.64 µM (active) and the EC50 [4] is reported as > 60 µM (not active). For the same molecule, the EC50 [5] was 3.11 µM (active), the AC50 [6] was 1.58 µM (inconclusive) and the AC50 [7] was 2.98 µM (active). The AC50 [8] was 7.94 µM (active).

For COc1cccc(-c2ncc3ccccc3c2CO)c1, the AC50 [1] was 38 µM (active).

With COc1ccc(-c2cc(C(=O)N3CCOCC3)no2)cc1 the AC50 [9] was 10.4 µM (active) and the AC50 [10] was 8.26 µM (active).

With Nc1nccnc1C(=O)OCC(=O)Nc1ccc2[nH]c(O)nc2c1 the IC50 [11] was > 66.6 µM (inactive) and the IC50 [12] was 11.9 µM (active).

In the case of COc1ccccc1NS(=O)(=O)c1cc(NC(=O)Nc2ccccc2)ccc1N1CCCCC1, the IC50 [13] is reported as 19.7 µM (inactive) and the IC50 [14] is reported as 83.3 µM (inactive).

In the case of O=C1NC(=O)N(CCc2ccc(F)cc2)C(=O)/C1=C/NNC(=O)c1ccncc1, the IC50 [15] is reported as > 29.9 µM (inactive) and the EC50 [16] is reported as > 29.9 µM (inactive).

In the case of Cc1ccc(NC(=O)Nc2ccc(F)c(Cl)c2)cc1, the AC50 [8] is reported as 33.1 µM (active).

In the case of CC(C)C[C@@H](CNCC(=O)[C@H](CC(=O)O)NC(=O)c1nc[nH]c1C(=O)N[C@H](CN)CC(C)C)NC(=O)c1[nH]cnc1C(=O)N[C@@H](Cc1ccccc1)C(=O)O, the IC50 [11] is reported as 50.1 µM (inactive), the IC50 [17] is reported as 12.4 µM (active) and the IC50 [18] is reported as 44 µM (active). The IC50 [12] was 5.92 µM (active).

In the case of C[C@@H]1CCCCO[C@H](CN(C)Cc2ccc(Cl)c(Cl)c2)[C@@H](C)CN([C@H](C)CO)C(=O)c2cc(N(C)C)ccc2O1, the AC50 [19] is reported as 2.73 µM (active).

In the case of O=C1CC2=CC=CC(=O)C(=O)C2=C(O)O1, the CC50 [20] is reported as > 40 µM (active).

For C[C@@H]1CN([C@H](C)CO)C(=O)c2cc(NC(=O)Nc3ccc(C(F)(F)F)cc3)ccc2O[C@@H](C)CCCCO[C@@H]1CN(C)C(=O)c1ccccc1, the AC50 [21] was 5.42 µM (active), the AC50 [22] was 7.17 µM (active) and the AC50 [23] was > 70 µM (inactive).

In the case of N#Cc1cccc(-c2ccc([C@@H]3[C@H](CO)N4CCCCN(C(=O)Nc5cccc(F)c5)C[C@@H]34)cc2)c1, the AC50 [24] is reported as 16.7 µM (active), the AC50 [25] is reported as > 24 µM (inactive) and the AC50 [9] is reported as 40.6 µM (active). The AC50 [10] was 47.2 µM (active), the AC50 [26] was 2.18 µM (active) and the AC50 [27] was 7.5 µM (active).

For CC(C)N1CC2(CN(Cc3ccc(F)cc3)C2)Oc2c(NC(=O)c3ccncc3)cccc2C1=O, the AC50 [19] was 0.876 µM (active).

For COCCn1c(C)cc(/C=N/NC(=O)c2cc3ccccc3cc2O)c1C, the AC50 [1] was 17.4 µM (active).

For Cn1/c(=N\C(=O)c2ccco2)sc2cccc(F)c21, the AC50 [8] was 25.3 µM (active).

With C[C@@H]1CN([C@@H](C)CO)S(=O)(=O)c2ccc(C#Cc3ccccc3)cc2O[C@H]1CN(C)C(=O)C1CC1 the AC50 [26] was 4.38 µM (active) and the AC50 [27] was > 39 µM (inactive).

For COc1ccc(C#Cc2ccc3c(c2)[C@H]2[C@H](CCN2Cc2nccs2)[C@@H](CO)N3)cc1, the AC50 [28] was 3.44 µM (active), the AC50 [29] was 74.7 µM (active) and the AC50 [26] was 1.9 µM (active). For the same molecule, the AC50 [30] was 2.06 µM (active) and the AC50 [31] was 2.52 µM (active).

In the case of OC[C@@H]1[C@H](c2ccc(C#Cc3ccccc3F)cc2)[C@H]2CN(Cc3cncnc3)CCCCN12, the AC50 [26] is reported as 3.54 µM (active) and the AC50 [27] is reported as 10.8 µM (active).

In the case of C[C@H](CO)N1C[C@H](C)[C@@H](CN(C)C(=O)Nc2ccc3c(c2)OCO3)Oc2ccc(NC(=O)Nc3ccc(C(F)(F)F)cc3)cc2CC1=O, the AC50 [28] is reported as 0.406 µM (active), the AC50 [29] is reported as > 100 µM (inactive) and the AC50 [26] is reported as 0.748 µM (active). For the same molecule, the AC50 [30] was 0.276 µM (active) and the AC50 [31] was 0.238 µM (active).

For COc1ccc(C#Cc2ccc3c(c2)[C@H]2[C@H](CCN2Cc2nccs2)[C@H](CO)N3)cc1, the AC50 [28] was 2.95 µM (active), the AC50 [29] was 59.9 µM (active) and the AC50 [26] was 2.09 µM (active). The AC50 [30] was 1.76 µM (active) and the AC50 [31] was 1.87 µM (active).
